In patent publication US20080274892A1, “Novel Haloalkylsulfonanilide Derivative, Herbicide, and Method of Use Thereof” (priority 2005, published 2008):

How the values were obtained:
false pimpernel [1] = experiment: Test Example 2: herbicidal efficacy on rice paddy weeds post-emergence; format: in vivo, Lindernia pyxidaria; details: 21 days after treatment
Source text: (§1) The standard of judgment for herbicidal efficacy (degree of growth inhibition) and phytotoxicity 4 . . . 90%-100% of herbicidal efficacy or phytotoxicity 3 . . . 70%-89% of herbicidal efficacy or phytotoxicity 2 . . . 40%-69% of herbicidal efficacy or phytotoxicity 1 . . . 1%-39% of herbicidal efficacy or phytotoxicity 0 . . . 0% of herbicidal efficacy or phytotoxicity
(§2) A 75 cm^2 plastic pot was filled with soil (clay loam) and planted seeds of barnyard glass and bulrush which is a rice paddy weed. After covering the top with 75 cm^3 soil mixed with seeds of false pimpernel, the pot was filled with water so that the soil submerged under 5 cm depth of water and kept in a hot house. […] The pot was kept in a hot house for 21 days after the treatment and the herbicidal efficacy was investigated and evaluated according to the standard in Test Example 1 by comparing with the untreated control. “-” in the table represents test not done.

bulrush [2] = experiment: as above; format: in vivo, Scirpus juncoides; details: 21 days after treatment
Source text: as §1, §2

[3] = tested on: paddy rice plant (cultivar: Nihonbare); experiment: Test Example 3: phytotoxicity test for transplanted paddy rice plant; format: in vivo; details: 21 days after treatment; for Phytotoxicity to paddy rice: transplanted rice
Procedure: as §1
A 75 cm^2 plastic pot was filled with soil (clay loam), and water was added so that the soil was submerged under 5 cm depth of water. Two paddy rice plant (cultivar: Nihonbare) at two leaves stage were transplanted at the depth of 1 cm and kept in a hot house. […] The pot was kept in a hot house for 21 days after the treatment and the phytotoxicity was investigated and evaluated according to the standard in Test Example 1 by comparing with the untreated control. “-” in the table represents test not done.

bulrush [4] = experiment: Test Example 1: herbicidal efficacy on rice paddy weeds pre-emergence; format: in vivo, Scirpus juncoides; details: 21 days
Procedure: (§3) A 75 cm^2 plastic pot was filled with soil (clay loam) and planted seeds of bulrush which is a rice paddy weed. After covering the top with 75 cm^3 soil mixed with seeds of false pimpernel, the pot was filled with water so that the soil submerged under 5 cm depth of water. The predetermined effective dosage ([…]) of a formulation containing the compound of the present invention prepared according to Formulation Example 1-4 as an active ingredient was diluted in water and added to the pot water surface dropwise. The pot was kept in a hot house for 21 days and the herbicidal efficacy was investigated. The herbicidal efficacy was evaluated according to the following standard by comparing with untreated control. “-” in the table represents test not done.
as §1

false pimpernel [5] = experiment: as above; format: in vivo, Lindernia pyxidaria; details: 21 days
Procedure: as §3, §1

[6] = dosage 1000 g/ha active ingredient, post-emergence treatment at one leaf stage, vs untreated control
[7] = dosage 1000 g/ha, post-emergence, one leaf stage
[8] = dosage 1000 g/ha, treated 5 days after transplantation
[9] = dosage 300 g/ha, post-emergence, one leaf stage

Compound	False pimpernel post (herbicidal efficacy grade) (false pimpernel [1]; [7])	False pimpernel pre (herbicidal efficacy grade) (false pimpernel [5]; dosage 1000 g/ha)	Bulrush post (herbicidal efficacy grade) (bulrush [2]; [7])	Phytotoxicity to paddy rice [3, 8]	Bulrush pre (herbicidal efficacy grade) (bulrush [4]; dosage 1000 g/ha)	False pimpernel post (herbicidal efficacy grade) (false pimpernel [1]; [9])	False pimpernel pre (herbicidal efficacy grade) (false pimpernel [5]; dosage 300 g/ha)	Bulrush post (herbicidal efficacy grade) (bulrush [2]; [9])	Phytotoxicity to paddy rice ([3]; dosage 300 g/ha)	Bulrush pre (herbicidal efficacy grade) (bulrush [4]; dosage 300 g/ha)	other results
COCOc1cccc(CN2CC(C)(C)OC2=O)c1N(C(=O)OCC(C)C)S(=O)(=O)C(F)(F)F [1-213]	–	–	–	–	–	–	–	–	–	–	False pimpernel post (herbicidal efficacy grade) (false pimpernel [1]; [6]): 2 (40%-69% of herbicidal efficacy or phytotoxicity); Bulrush post (herbicidal efficacy grade) (bulrush [2]; [6]): 4 (90%-100% of herbicidal efficacy or phytotoxicity); Phytotoxicity to paddy rice (grade) ([3]; dosage 1000 g/ha active ingredient, treated 5 days after transplantation, vs untreated control): 1 (1%-39% of herbicidal efficacy or phytotoxicity); Bulrush pre (herbicidal efficacy grade) (bulrush [4]; dosage 1000 g/ha active ingredient, vs untreated control): 4 (90%-100% of herbicidal efficacy or phytotoxicity)
COCC1CN(Cc2ccccc2NS(=O)(=O)C(F)(F)F)C(=O)O1 (stereo not shown) [Compound 1-35]	4 (90%-100% of herbicidal efficacy or phytotoxicity)	4 (90%-100% of herbicidal efficacy or phytotoxicity)	4 (90%-100% of herbicidal efficacy or phytotoxicity)	1 (1%-39% of herbicidal efficacy or phytotoxicity)	4 (90%-100% of herbicidal efficacy or phytotoxicity)	–	–	–	–	–	–
CC1(C)CN(Cc2ccccc2N(C(=O)OCc2ccccc2)S(=O)(=O)C(F)(F)F)C(=O)O1 [Compound 1-83]	–	–	–	–	–	1 (1%-39% of herbicidal efficacy or phytotoxicity)	1 (1%-39% of herbicidal efficacy or phytotoxicity)	4 (90%-100% of herbicidal efficacy or phytotoxicity)	0 (0% of herbicidal efficacy or phytotoxicity)	4 (90%-100% of herbicidal efficacy or phytotoxicity)	–
CCCCCCCCCCCCCCCCOC(=O)N(c1ccccc1CN1CC(C)(C)OC1=O)S(=O)(=O)C(F)(F)F [Compound 1-84]	–	–	–	–	–	4 (90%-100% of herbicidal efficacy or phytotoxicity)	4 (90%-100% of herbicidal efficacy or phytotoxicity)	3 (70%-89% of herbicidal efficacy or phytotoxicity)	1 (1%-39% of herbicidal efficacy or phytotoxicity)	4 (90%-100% of herbicidal efficacy or phytotoxicity)	–
O=C1OC2(CC2)CN1Cc1ccccc1NS(=O)(=O)C(F)(F)F [Compound 1-88]	–	–	–	–	–	4 (90%-100% of herbicidal efficacy or phytotoxicity)	4 (90%-100% of herbicidal efficacy or phytotoxicity)	4 (90%-100% of herbicidal efficacy or phytotoxicity)	1 (1%-39% of herbicidal efficacy or phytotoxicity)	4 (90%-100% of herbicidal efficacy or phytotoxicity)	–
CC(C)COC(=O)N(c1ccccc1CN1CC(C)(c2ccccc2)OC1=O)S(=O)(=O)C(F)(F)F (stereo not shown) [Compound 1-141]	–	–	–	–	–	4 (90%-100% of herbicidal efficacy or phytotoxicity)	4 (90%-100% of herbicidal efficacy or phytotoxicity)	4 (90%-100% of herbicidal efficacy or phytotoxicity)	1 (1%-39% of herbicidal efficacy or phytotoxicity)	3 (70%-89% of herbicidal efficacy or phytotoxicity)	–
CC(C)COC(=O)N(c1ccccc1CN1CC(C)(C2CCCCC2)OC1=O)S(=O)(=O)C(F)(F)F (stereo not shown) [Compound 1-156]	–	–	–	–	–	4 (90%-100% of herbicidal efficacy or phytotoxicity)	4 (90%-100% of herbicidal efficacy or phytotoxicity)	4 (90%-100% of herbicidal efficacy or phytotoxicity)	1 (1%-39% of herbicidal efficacy or phytotoxicity)	4 (90%-100% of herbicidal efficacy or phytotoxicity)	–
CC(C)=CC1(C)CN(Cc2ccccc2NS(=O)(=O)C(F)(F)F)C(=O)O1 (stereo not shown) [Compound 1-164]	4 (90%-100% of herbicidal efficacy or phytotoxicity)	4 (90%-100% of herbicidal efficacy or phytotoxicity)	4 (90%-100% of herbicidal efficacy or phytotoxicity)	1 (1%-39% of herbicidal efficacy or phytotoxicity)	4 (90%-100% of herbicidal efficacy or phytotoxicity)	–	–	–	–	–	–
CC(C)=CC1(C)CN(Cc2ccccc2N(C(=O)OCC(C)C)S(=O)(=O)C(F)(F)F)C(=O)O1 (stereo not shown) [Compound 1-165]	4 (90%-100% of herbicidal efficacy or phytotoxicity)	4 (90%-100% of herbicidal efficacy or phytotoxicity)	4 (90%-100% of herbicidal efficacy or phytotoxicity)	1 (1%-39% of herbicidal efficacy or phytotoxicity)	4 (90%-100% of herbicidal efficacy or phytotoxicity)	–	–	–	–	–	–
COC(=O)N(c1ccccc1CN1CC(C)(C=C(C)C)OC1=O)S(=O)(=O)C(F)(F)F (stereo not shown) [Compound 1-166]	4 (90%-100% of herbicidal efficacy or phytotoxicity)	4 (90%-100% of herbicidal efficacy or phytotoxicity)	4 (90%-100% of herbicidal efficacy or phytotoxicity)	2 (40%-69% of herbicidal efficacy or phytotoxicity)	4 (90%-100% of herbicidal efficacy or phytotoxicity)	–	–	–	–	–	–
CC1(COCc2ccccc2)CN(Cc2ccccc2NS(=O)(=O)C(F)(F)F)C(=O)O1 (stereo not shown) [Compound 1-173]	4 (90%-100% of herbicidal efficacy or phytotoxicity)	4 (90%-100% of herbicidal efficacy or phytotoxicity)	4 (90%-100% of herbicidal efficacy or phytotoxicity)	1 (1%-39% of herbicidal efficacy or phytotoxicity)	4 (90%-100% of herbicidal efficacy or phytotoxicity)	–	–	–	–	–	–
CC1(C)OC1C1(C)CN(Cc2ccccc2NS(=O)(=O)C(F)(F)F)C(=O)O1 (stereo not shown) [Compound 1-176]	4 (90%-100% of herbicidal efficacy or phytotoxicity)	4 (90%-100% of herbicidal efficacy or phytotoxicity)	4 (90%-100% of herbicidal efficacy or phytotoxicity)	1 (1%-39% of herbicidal efficacy or phytotoxicity)	4 (90%-100% of herbicidal efficacy or phytotoxicity)	–	–	–	–	–	–
CC1OC(=O)N(Cc2ccccc2NS(=O)(=O)C(F)(F)F)C1=O (stereo not shown) [Compound 1-190]	–	–	–	–	–	2 (40%-69% of herbicidal efficacy or phytotoxicity)	4 (90%-100% of herbicidal efficacy or phytotoxicity)	4 (90%-100% of herbicidal efficacy or phytotoxicity)	0 (0% of herbicidal efficacy or phytotoxicity)	4 (90%-100% of herbicidal efficacy or phytotoxicity)	–
CC(C)COC(=O)N(c1ccccc1CN1C(=O)OC(C)C1=O)S(=O)(=O)C(F)(F)F (stereo not shown) [Compound 1-191]	–	–	–	–	–	2 (40%-69% of herbicidal efficacy or phytotoxicity)	4 (90%-100% of herbicidal efficacy or phytotoxicity)	4 (90%-100% of herbicidal efficacy or phytotoxicity)	0 (0% of herbicidal efficacy or phytotoxicity)	4 (90%-100% of herbicidal efficacy or phytotoxicity)	–
CCC1OC(=O)N(Cc2ccccc2N(C(=O)OCC(C)C)S(=O)(=O)C(F)(F)F)C1=O (stereo not shown) [Compound 1-193]	–	–	–	–	–	1 (1%-39% of herbicidal efficacy or phytotoxicity)	4 (90%-100% of herbicidal efficacy or phytotoxicity)	4 (90%-100% of herbicidal efficacy or phytotoxicity)	0 (0% of herbicidal efficacy or phytotoxicity)	4 (90%-100% of herbicidal efficacy or phytotoxicity)	–
CCOC1N(Cc2ccccc2NS(=O)(=O)C(F)(F)F)C(=O)OC1(C)C (stereo not shown) [Compound 1-198]	–	–	–	–	–	–	–	–	2 (40%-69% of herbicidal efficacy or phytotoxicity)	4 (90%-100% of herbicidal efficacy or phytotoxicity)	–
